Results reported in a melting point compilation (Tetko et al.; mined from patent text by program, amines drawn as free bases though some values may be those of a salt).

First: Cc1nc(N2CCN(CC3CC3)C2=O)sc1C(=O)NCc1cccnn1
Second: O=S(=O)(c1ccc(Br)cc1)N1CCC(CN2CCC(c3ccncc3)CC2)CC1
The melting point of the first is higher: 187 to 189 °C for the first, 163 to 164 °C for the second.

First: CC(=O)NC1=CCc2ccccc21
Second: CNc1ccccc1C(=O)COC(=O)c1ccccc1
The melting point of the first is higher: 137 to 138 °C for the first, 85 to 87 °C for the second.

COc1cc(COc2cc(CCC(=O)O)n(-c3ccccc3)n2)ccc1OCc1nc(-c2ccccc2)oc1C and c1ccc(-c2nc3c4ccccc4ccn3n2)cc1 fall in the same range of melting point: 157 to 158 °C for the first, 157 to 158 °C for the second.

Compared with Oc1c2c3c(ccnc3c3ccccc13)CCC2, O=c1cc(-c2cccnc2)oc2ccccc12 is lower in melting point: 260 °C for the first, 123 to 124 °C for the second.

First: CCC(=O)OCc1ccc2oc(=O)c(C(=O)Oc3cncc(Cl)c3)cc2c1
Second: CCC(OC)(c1cncc(OCc2ccc3ccccc3c2)c1)c1nccs1 (stereo unspecified)
The melting point of the first is higher: 156 to 158 °C for the first, 93 to 95 °C for the second.

Compared with CN(C)C(=O)C(C)(C)c1cc(C#N)ccc1O, CC(C)(CO)c1cc(OS(C)(=O)=O)ccc1O is lower in melting point: 146 to 148 °C for the first, 122 to 124 °C for the second.

First: COc1cc(C)c(NCCO)cc1[N+](=O)[O-]
Second: COc1cc2nc(C(C)(C)C)sc2cc1NC(=S)SCCC(=O)O
The melting point of the first is lower: 94 °C for the first, 154 to 156 °C for the second.

First: CCCOc1ccc2c(c1)[C@@H](c1ccc(OC)cc1OCCO)[C@H](C(=O)O)[C@H]2c1ccc2c(c1)OCO2
Second: COCCOc1ccc(/C=C/C(=O)NS(=O)(=O)c2ccc(C)cc2)c(Oc2ncc(C(F)(F)F)cc2Cl)c1
The melting point of the first is higher: 125 to 127 °C for the first, 102 to 106 °C for the second.

First: Cc1nc2sccn2c1-c1ccc(C#N)cc1
Second: N#Cc1c(O)ccc2oc(-c3ccc(O)cc3)cc12
The melting point of the first is lower: 88 to 91 °C for the first, over 230 °C for the second.

First: N[C@@H](Cc1ccc(C(F)(F)F)cc1)[C@H](O)c1ccccc1 (racemic)
Second: COc1ccc(C(=O)O)c(-c2ccc(C(F)(F)F)cc2)c1
The melting point of the first is lower: 64 to 65 °C for the first, 232 to 234 °C for the second.

Going from CCCC1=C([N+](=O)[O-])C(c2ccccc2Cl)c2c[nH]nc2N1 (stereo unspecified) to CCOCC1=C(C(=O)OCC)C(c2ccccc2Cl)C(C(=O)OCC)=C(C)N1 (stereo unspecified), the melting point falls from 228 °C to 115 °C.

First: CCCCCCCCC(SCCCCCC)C(=O)Nc1c(SC)ccc2ncc(C)cc12 (stereo unspecified)
Second: COC(=O)CCCCSCCCCCCCCCCCOS(=O)(=O)c1ccc(C)cc1
The melting point of the first is higher: 137 to 138 °C for the first, 54 °C for the second.

First: CCCc1cc2c(cc1C=Cc1ccc(C(=O)OC)cc1)C(C)(C)CCC2(C)C
Second: CCC(=O)S(=O)(=O)c1ccc(C=C(C)c2ccc3c(c2)C(C)(C)CCC3(C)C)cc1
The melting point of the first is lower: 120 to 121 °C for the first, 140 to 141 °C for the second.

First: CCOC(=O)c1[nH]c2cc(Cl)cc(Cl)c2c1NCCC(=O)c1ccc(C(F)(F)F)cc1
Second: O=C(CC1CC1)Nc1c(C(=O)c2ccccc2)[nH]c2cc(Cl)ccc12
The melting point of the first is higher: 232 to 234 °C for the first, 72 to 75 °C for the second.

Compared with C=C(C)COc1ccc(NC(C)=O)c(C)c1C, CCOC(=O)C1C(=O)C=C(OC(C)OCC)CC1c1ccc(C)cc1 (stereo unspecified) is lower in melting point: 154 to 156 °C for the first, 59 to 60 °C for the second.

Compared with CSc1c(C#N)nn(-c2c(Cl)cc(C(F)(F)F)cc2Cl)c1N(C)C, O=C(Nc1ccc(-n2nc(C(F)(F)F)cc2C(F)(F)F)cc1)c1ccc(Cl)cc1F is higher in melting point: 118 to 119 °C for the first, 156 to 158 °C for the second.

First: COc1cc(C2OCCO2)cc(I)c1O
Second: Cc1cc2c(cc1Cl)nc(Br)n2[C@@H]1OC[C@@H](O)[C@@H](O)[C@H]1O
The melting point of the first is lower: 120 to 121 °C for the first, 150 °C for the second.

Compared with O=C(O)C1Cc2ccccc2CN1C(=O)c1ccc(F)c(F)c1 (stereo unspecified), O=P(O)(O)C1(P(=O)(O)O)Cc2ccccc2C1 is lower in melting point: 89 to 91 °C for the first, 55 to 57 °C for the second.

First: N#CC1(C#N)C2CC(C3OC32)C1(Cl)Cl (stereo unspecified)
Second: N#Cc1ccc(CC2CC3CCC(C2)N3c2ccccc2)c2ccccc12 (stereo unspecified)
The melting point of the first is higher: 229 °C for the first, 103 to 104 °C for the second.

Compared with CCc1ccc(N2CCN(Cc3c[nH]c4ncccc34)CC2)cc1, CCc1ccc(-c2ccc(C(=O)Nc3cc4ncc(CN5CCCC5)cc4cc3C)cc2)cc1 is lower in melting point: 216 to 217 °C for the first, 188 °C for the second.

Compared with COCC1OC(n2cnc3c(N)nc(Cl)nc32)C(O)C1O (stereo unspecified), CCOC(=O)N(CC)c1cccc(-c2ccnc3ccnn23)c1 is lower in melting point: 200 to 202 °C for the first, 79 to 81 °C for the second.

Compared with CC1CC(C)(C)C(O)(CO)C1Cc1ccc(Cl)cc1 (stereo unspecified), CC(C)(C)OC(=O)N1C(COc2noc3ccc(Cl)cc23)COC1(C)C (stereo unspecified) is higher in melting point: 93 to 94 °C for the first, 117 to 118 °C for the second.

First: CCOc1cc(-c2ccc3c(c2)C=C(C(=O)Nc2ccc(CN(C)C4CCOCC4)cc2)CCS3(=O)=O)ccc1C#N
Second: COC(=O)C(c1ccccc1Cl)C1CNc2sc(OC(=O)c3ccc([N+](=O)[O-])cc3)cc2C1 (stereo unspecified)
The melting point of the first is higher: 244 to 247 °C for the first, 100 to 102 °C for the second.

Compared with CCCC(=O)c1cc2c(c(Cl)c1Cl)OC(C(=O)O)C2 (stereo unspecified), CCCc1c(C(=O)C(C)C)c2ccc(NC=O)cc2n1Cc1ccccc1Cl is lower in melting point: 124 to 125 °C for the first, 113 to 115 °C for the second.

First: O=S(=O)(c1ccccc1)c1ccc(/C=C/C(O)(C(F)F)C(F)F)cc1
Second: CCCn1c(-c2ccccc2)nc2cc(C(=O)OC)ccc21
The melting point of the first is higher: 123 to 124 °C for the first, 79.8 °C for the second.

First: O=C1NC(C(Cl)(Cl)Cl)Nc2ccc([N+](=O)[O-])cc21 (stereo unspecified)
Second: CCc1cc(C(C)O)nn1-c1ccc([N+](=O)[O-])cc1 (stereo unspecified)
The melting point of the first is higher: 278 to 280 °C for the first, 127 to 128 °C for the second.

First: COc1ccccc1N1CCN(c2cc3nc(C(=O)O)c(=O)[nH]c3cc2[N+](=O)[O-])CC1
Second: CCc1c(C(=O)C(N)=O)c2c([N+](=O)[O-])cccc2n1Cc1ccccc1
The melting point of the first is lower: 204 to 206 °C for the first, 207 to 208 °C for the second.

First: COc1ccc(NC(=O)[C@H]2[C@H](c3ccc(S(N)(=O)=O)cc3)C23CCCC3)c(OC)n1 (relative stereo)
Second: O=S(=O)(c1ccc(-n2cccn2)cc1)N1CCC(CNCC(O)COc2ccc(O)cc2)CC1 (stereo unspecified)
The melting point of the first is lower: 112 to 115 °C for the first, 169 to 171 °C for the second.

First: NCCCCCc1nc2ccccc2[nH]1
Second: NCCCCn1ccnc1-c1ccccc1
The melting point of the first is higher: 101 °C for the first, 82 to 84 °C for the second.

Compared with C=CCc1cc(C(=O)c2ccccc2)c(O)cc1OCCCCC#N, Nc1cccc2ccc(C(=O)O)cc12 is higher in melting point: 60 to 62 °C for the first, 221 to 223 °C for the second.

First: Cc1ccc(N)c(C(=O)NCCC(C)n2ccnc2)c1 (stereo unspecified)
Second: COc1ccc2oc(Cc3cccnc3)c(CCNC(C)=O)c2c1
The melting point of the first is higher: 128 to 130 °C for the first, 117 °C for the second.

First: CON1C(=O)CC2(CCN(C(=O)OCCBr)CC2)C1=O
Second: COC(=O)C(O)C1(O)CCC2C3CCC4=CC(=O)C=CC4(C)C3C(O)CC21C (stereo unspecified)
The melting point of the first is lower: 134 °C for the first, 171 to 173 °C for the second.

Compared with Cn1c(=O)c(Oc2c(F)cccc2F)cc2cnc(S(C)(=O)=O)nc21, O=S(=O)(Nc1nnc(Cl)cc1OCc1cccnc1)c1cccc(Cl)c1Cl is higher in melting point: 215 to 216 °C for the first, 216 to 217 °C for the second.

First: CC(C)(C)c1cc(-c2ccc(N)cc2)cc(C(C)(C)C)c1O
Second: CC(C)(C)c1cc(CCc2ccccc2NC(=O)NC2CCCCCCC2)cc(C(C)(C)C)c1O
The melting point of the first is lower: 113 to 114 °C for the first, 174 to 176 °C for the second.

First: O=C(c1ccc(Cl)cc1)c1ccc2c(c1)C(c1cccc(Cl)c1)SCc1nnnn1-2 (stereo unspecified)
Second: Clc1ccc(C2(c3ccccc3)OC2n2ccnc2)c(Cl)c1 (stereo unspecified)
The melting point of the first is higher: 212 °C for the first, 135 to 137 °C for the second.

First: CCOP(=O)(CC(=O)Nc1c(C(C)C)cccc1C(C)C)OCC
Second: COc1ccc2cc([C@H](C)C(=O)OCC(=O)N(C)CC(=O)OCCCO)ccc2c1
The melting point of the first is higher: 119 to 120 °C for the first, 41 to 43 °C for the second.

Compared with CC#Cc1ccccc1S(N)(=O)=O, O=S(=O)(CCl)Nc1ccc(F)cc1Cl is lower in melting point: 147 to 149 °C for the first, 83 to 85 °C for the second.

Compared with C[C@]12C[C@H](c3ccc(OCCCCCCl)cc3)[C@@H]3c4ccc(O)cc4CC[C@H]3[C@@H]1CC[C@@H]2O, CN1CCC(C2(O)c3ccccc3CCn3cc(-c4ccccc4)nc32)CC1 (stereo unspecified) is higher in melting point: 165 °C for the first, 225 °C for the second.

First: COc1ccc(C2(c3ccc(N(C)C)cc3)OC(=O)c3cc(N(C)C)ccc32)c(OC)c1 (stereo unspecified)
Second: COc1ccc2c(c1)CCc1cc(Nc3ccc(F)cc3F)ccc1C2=O
The melting point of the first is higher: 192 to 194 °C for the first, 157 °C for the second.

Compared with CC1=C(CC2=CC(=O)C=CC2=O)C(=O)C2C=CC=CC2C1=O (stereo unspecified), Cc1ccc(CNc2cccc3c2C(=O)N(C2CCC(=O)NC2=O)C3=O)o1 (stereo unspecified) is higher in melting point: 142 to 144 °C for the first, 305 to 307 °C for the second.

First: CN(C)C=C(C1=NCCCS1)[N+](=O)[O-]
Second: O=C1C[C@@H]2CCCC[C@@H]2N1O (relative stereo)
The melting point of the first is higher: 168 to 170 °C for the first, 85 to 86 °C for the second.

First: CC1CC2C(=C(Cl)C=CC2(F)n2[nH]c3c(c2=O)CCCC3)O1 (stereo unspecified)
Second: CC(=O)NC[C@H]1CN(c2ccc(N3CCN(CCN4CCCCC4)CC3)c(F)c2)C(=O)O1
The melting point of the first is higher: 240 to 242 °C for the first, 169 to 170 °C for the second.

First: CC(C)(C)OC(=O)CN(C(=O)CN1C(=O)c2ccccc2C1=O)c1ccccc1F
Second: CC(C)n1nc(-c2sc(C(N)=O)nc2-c2ccc(F)cc2)ccc1=O
The melting point of the first is lower: 140 °C for the first, 226 to 228 °C for the second.

First: O=C(O)CCCc1cc2cc(Cl)ccc2n1S(=O)(=O)c1ccc2c(c1)OCCO2
Second: CN(C)c1cc2c(cc1Cl)NC(=O)CC(c1cccc(-c3nc(CN4CCOCC4)cs3)c1)=N2
The melting point of the first is lower: 131 to 134 °C for the first, 138 to 143 °C for the second.

First: O=C1CNC(c2cc(-c3ccsc3)cc(-c3ccsc3)c2)=NN1CC(F)(F)F
Second: Cn1c(CNc2ccc(Oc3cccc(C(F)(F)F)c3)cc2)nc([N+](=O)[O-])c1C#N
The melting point of the first is higher: 180 to 182 °C for the first, 124 to 126 °C for the second.

First: O=C(c1cc2cc([N+](=O)[O-])ccc2o1)C12CC3CC(CC(C3)C1)C2
Second: Nc1cc(-c2nc(-c3ccco3)no2)ccc1Cl
The melting point of the first is lower: 151 to 153 °C for the first, 203 to 204 °C for the second.

Compared with O=C(O)c1cnncc1C(F)(F)F, FC(F)(F)c1cc(Cl)nc2[nH]ncc12 is lower in melting point: 150 to 151 °C for the first, 112 °C for the second.

Compared with CCSc1nsc(NC(=O)NC)c1C(N)=O, NC(=O)c1c(F)ccc(F)c1N is lower in melting point: 205 °C for the first, 121 to 123 °C for the second.

Compared with COCCN1CC(c2ccccc2)NC1=S (stereo unspecified), CC=CC=CCOC(=O)C1=C(C)NC(C)=C(C(=O)OC)C1c1cccc(C(F)(F)F)c1 (stereo unspecified) is higher in melting point: 76 to 78 °C for the first, 130 to 131 °C for the second.

Compared with CCn1c(C(C#N)c2cc(C)cc(C#N)c2)c(C(C)C)c(=O)[nH]c1=O (stereo unspecified), COc1c(C)cnc(CSc2nc3ncccc3[nH]2)c1C is lower in melting point: 260 to 261 °C for the first, 186 to 188 °C for the second.

CC(C)(C)C(=O)Nc1cc2c(O)n(I)c(I)nc-2n1 showed a melting point of 233 °C.
